Results from patent US6630502B2, “Method for preventing, stabilizing or causing regression of atherosclerosis employing a combination of a cholesterol lowering drug and an ace inhibitor” (E.R. Squibb & Sons, Inc., priority 1990, dated 2003).
Marks after values point to notes of the source that are not given here.

What was measured:
[1] = Body weight, mean arterial pressure and heart rate of cholesterol-fed hamsters treated for 8 weeks; type: in vivo, hamster; details: mean ± SD, combination 33 + 100 mg/kg/day; for HR (Heart Rate) / MAP (Mean Arterial Pressure): at 8 weeks, pravastatin 34 mg/kg/day, captopril 100 mg/kg/day; for Body Weight: hamsters on atherogenic diet, 8 weeks, pravastatin 34 mg/kg/day (diet), captopril 100 mg/kg/day (gavage)
[2] = system: fatty streak (macrophage-foam cells) of the aortic arch; test: Fatty streak area in the aortic arch (oil red O, image analysis) of cholesterol-fed hamsters; type: in vivo, hamster; details: 8 weeks; for Fatty Streak Area: mean ± SD, 6 arches per group, pravastatin 34 mg/kg/day, captopril 100 mg/kg/day, combination 33 + 100 mg/kg/day
Protocol: (§1) Male F1 hamsters were fed 0.3% cholesterol and 10% coconut oil.
(§2) Four sets of hamsters were established (n=12-13 per group). […] All animals were fed the same atherogenic diet. Pravastatin was delivered via the diet and captopril was gavaged daily. Hamsters in the control and pravastatin groups were gavaged with water. The animals were treated for 8 weeks. At 3 and 6 weeks the animals were fasted overnight and bled to determine plasma cholesterols and triglycerides. At 8 weeks, mean arterial pressure and heart rate were measured and then the animals were fixed by perfusing formalin. The aortic arch was stained with oil red O and the total area of the fatty streak (which consists of macrophage-foam cells) was measured by computer assisted image analysis.

[3] = Body weight, mean arterial pressure and heart rate of cholesterol-fed hamsters treated for 8 weeks; type: in vivo, hamster; details: at 8 weeks
Protocol: as §1
Four sets of hamsters were established (n=12-13 per group). The groups were controls, pravastatin (34 mg/kg/day), captopril (100 mg/kg/day) and pravastatin plus captopril (32 and 100 mg/kg/day, respectively). All animals were fed the same atherogenic diet. Pravastatin was delivered via the diet and captopril was gavaged daily. Hamsters in the control and pravastatin groups were gavaged with water. The animals were treated for 8 weeks. At 3 and 6 weeks the animals were fasted overnight and bled to determine plasma cholesterols and triglycerides. At 8 weeks, mean arterial pressure and heart rate were measured and then the animals were fixed by perfusing formalin. The aortic arch was stained with oil red O and the total area of the fatty streak (which consists of macrophage-foam cells) was measured by computer assisted image analysis.

[4] = Plasma lipids of cholesterol-fed hamsters (control and treated); type: in vivo, hamster; details: mean ± SD, at 5 weeks, pravastatin 34 mg/kg/day, captopril 100 mg/kg/day, combination 33 + 100 mg/kg/day
Protocol: as §1
as §2, with “At 3 and 6 weeks the animals were fasted overnight and bled to determine plasma cholesterols and triglycerides.” left out

[5] = hypercholesterolemic patients; cited from earlier work

| SMILES | HR (Heart Rate) [1] | MAP (Mean Arterial Pressure) [1] | Body Weight [1] [g] | reduction of fatty streak (lesion) area compared to control group [2] | Fatty Streak Area [2] | effect on blood pressure ([3]; 34 mg/kg/day) | effect on heart rate ([3]; 34 mg/kg/day) | HDL-C [4] | TC [4] | TG [4] | VLDL + LDL-C [4] | heart rate less than control hamsters ([3]; compared with control hamsters) [%] | mean arterial pressure lower than controls ([3]; compared with control hamsters) [%] | change of serum cholesterol [5] [%] | increase of HDL [5] [%] |
| --- | --- | --- | --- | --- | --- | --- | --- | --- | --- | --- | --- | --- | --- | --- | --- |
| CC[C@H](C)C(=O)O[C@H]1C[C@H](O)C=C2C=C[C@H](C)[C@H](CC[C@@H](O)C[C@@H](O)CC(=O)O)[C@H]21 [Pravastatin, pravastatin] | 355 ± 27 beats/min. | 138 ± 13 mmHg | 139 ± 8 | approximately 50% | 248 ± 119^b μm^2 × 10^3 | no effect | no effect | 117 ± 7^a mg/dl | 456 ± 107^a mg/dl | 185 ± 34^a mg/dl | 339 ± 93^a mg/dl |  |  |  |  |
| C[C@H](CS)C(=O)N1CCC[C@H]1C(=O)O [Captopril, 1-[(2S)-3-mercapto-2-methylpropionyl]-L-proline] | 348 ± 22^a beats/min. | 110 ± 17^a mmHg | 133 ± 12 | approximately 50% | 245 ± 154^c μm^2 × 10^3 |  |  | 72 ± 23 mg/dL | 660 ± 94 mg/dL | 1105 ± 259 mg/dL | 588 ± 83 mg/dL | 7 | 21 | −18 | 27 |
